# Legend:
# Assay type in all cases: functional
# OVCAR-5 = assay: Cytotoxicity against human OVCAR5 cells assessed as cellular growth at 10 uM by SRB assay
# RXF 393 = assay: Cytotoxicity against human RXF393 cells assessed as cellular growth at 10 uM by SRB assay
# NCI-H322M = assay: Cytotoxicity against human NCI-H322M cells assessed as cellular growth at 10 uM by SRB assay
# LOX IMVI = assay: Cytotoxicity against human LOXIMVI cells assessed as cellular growth at 10 uM by SRB assay
# UO-31 = assay: Cytotoxicity against human UO31 cells assessed as cellular growth at 10 uM by SRB assay
# M14 = assay: Cytotoxicity against human M14 cells assessed as cellular growth at 10 uM by SRB assay
# HOP-62 = assay: Cytotoxicity against human HOP62 cells assessed as cellular growth at 10 uM by SRB assay
# SK-OV-3 = assay: Cytotoxicity against human SKOV3 cells assessed as cellular growth at 10 uM by SRB assay
# HCT-15 = assay: Cytotoxicity against human HCT15 cells assessed as cellular growth at 10 uM by SRB assay
# EKVX = assay: Cytotoxicity against human EKVX cells assessed as cellular growth at 10 uM by SRB assay
# HL-60(TB) = assay: Cytotoxicity against human HL-60(TB) cells assessed as cellular growth at 10 uM by SRB assay
# SF-268 = assay: Cytotoxicity against human SF268 cells assessed as cellular growth at 10 uM by SRB assay
# MDA-MB-468 = assay: Cytotoxicity against human MDA-MB-468 cells assessed as cellular growth at 10 uM by SRB assay
# HOP-92 = assay: Cytotoxicity against human HOP92 cells assessed as cellular growth at 10 uM by SRB assay
# [1] = Cytotoxicity against human NCI-ADR-RES cells assessed as cellular growth at 10 uM by SRB assay
# OVCAR-3 = assay: Cytotoxicity against human OVCAR3 cells assessed as cellular growth at 10 uM by SRB assay
# SR = assay: Cytotoxicity against human SR cells assessed as cellular growth at 10 uM by SRB assay
# SK-MEL-28 = assay: Cytotoxicity against human SK-MEL-28 cells assessed as cellular growth at 10 uM by SRB assay
# IGROV-1 = assay: Cytotoxicity against human IGROV1 cells assessed as cellular growth at 10 uM by SRB assay
# OVCAR-4 = assay: Cytotoxicity against human OVCAR4 cells assessed as cellular growth at 10 uM by SRB assay
structure (smiles),measurement,setting,value
Nc1c(C(=O)Nc2ccccc2F)sc2nc3c(cc12)C(=O)CCC3,Activity,OVCAR-5,71.12%
same,Activity,RXF 393,9.63%
same,Activity,NCI-H322M,68.76%
same,Activity,LOX IMVI,54.2%
same,Activity,UO-31,76%
same,Activity,M14,19.18%
same,Activity,HOP-62,42.7%
same,Activity,SK-OV-3,13.58%
same,Activity,HCT-15,40.21%
same,Activity,EKVX,56.31%
same,Activity,HL-60(TB),3387%
same,Activity,SF-268,54.87%
same,Activity,MDA-MB-468,-15.24%
same,Activity,HOP-92,53.65%
same,Activity,[1],-4.39%
same,Activity,OVCAR-3,16.76%
same,Activity,SR,36.7%
same,Activity,SK-MEL-28,64.11%
Oc1ccccc1-c1nc(-c2cccs2)no1,Activity,RXF 393,117.42%
same,Activity,NCI-H322M,116.66%
same,Activity,LOX IMVI,100.28%
same,Activity,UO-31,71.94%
same,Activity,M14,106.76%
same,Activity,HOP-62,88.78%
same,Activity,SK-OV-3,99.86%
same,Activity,HCT-15,64.4%
same,Activity,EKVX,89.29%
same,Activity,SF-268,112.74%
same,Activity,MDA-MB-468,44.64%
same,Activity,HOP-92,50.86%
same,Activity,[1],106.13%
same,Activity,OVCAR-3,108.33%
same,Activity,IGROV-1,86.9%
same,Activity,SK-MEL-28,115.6%
CC1(C)CC(=O)c2cc3c(N)c(C(=O)Nc4ccccc4Cl)sc3nc2C1,Activity,RXF 393,117.18%
same,Activity,NCI-H322M,131.48%
same,Activity,LOX IMVI,117.15%
same,Activity,UO-31,117.05%
same,Activity,M14,118.29%
same,Activity,HOP-62,116.65%
same,Activity,SK-OV-3,107.93%
same,Activity,HCT-15,98.89%
same,Activity,EKVX,108.8%
same,Activity,SF-268,122.6%
same,Activity,MDA-MB-468,110.28%
same,Activity,HOP-92,103.08%
same,Activity,[1],115.33%
same,Activity,OVCAR-3,121.58%
same,Activity,IGROV-1,126.77%
same,Activity,SK-MEL-28,116.26%
O=c1/c(=C/c2ccc(Cl)cc2Cl)sc2nc(-c3ccccc3)nn12,Activity,RXF 393,121.72%
same,Activity,NCI-H322M,127.05%
same,Activity,LOX IMVI,95.09%
same,Activity,UO-31,114.46%
same,Activity,M14,103.59%
same,Activity,HOP-62,120.5%
same,Activity,SK-OV-3,109.75%
same,Activity,HCT-15,100.58%
same,Activity,EKVX,111.1%
same,Activity,HL-60(TB),91.7%
same,Activity,SF-268,107.16%
same,Activity,MDA-MB-468,112.09%
same,Activity,HOP-92,104.34%
same,Activity,[1],112.24%
same,Activity,OVCAR-3,116%
same,Activity,SR,94.63%
same,Activity,IGROV-1,130.42%
same,Activity,SK-MEL-28,117.34%
O=C(Nc1ccc2oc(=O)ccc2c1)c1ccc(-c2ccc(Cl)c(Cl)c2)o1,Activity,OVCAR-5,99.5%
same,Activity,RXF 393,98.99%
same,Activity,NCI-H322M,91.94%
same,Activity,LOX IMVI,47.73%
same,Activity,UO-31,65.88%
same,Activity,M14,100.99%
same,Activity,HOP-62,109.12%
same,Activity,SK-OV-3,107.01%
same,Activity,HCT-15,72.06%
same,Activity,EKVX,94.26%
same,Activity,HL-60(TB),85.04%
same,Activity,OVCAR-4,91.52%
same,Activity,SF-268,85.02%
same,Activity,MDA-MB-468,97.57%
same,Activity,[1],78.15%
same,Activity,OVCAR-3,102.55%
same,Activity,SR,89.98%
same,Activity,IGROV-1,106.69%
same,Activity,SK-MEL-28,101.23%
Cc1ccc(C(=O)/C=C2/Nc3ccc(C)cc3OC2=O)cc1,Activity,OVCAR-5,120.4%
same,Activity,RXF 393,112.41%
same,Activity,NCI-H322M,106.47%
same,Activity,LOX IMVI,104.53%
same,Activity,UO-31,94.47%
same,Activity,M14,106.88%
same,Activity,HOP-62,115.04%
same,Activity,SK-OV-3,115.37%
same,Activity,HCT-15,110.94%
same,Activity,EKVX,92.88%
same,Activity,HL-60(TB),82.69%
same,Activity,OVCAR-4,96.74%
same,Activity,SF-268,110.95%
same,Activity,MDA-MB-468,112.98%
same,Activity,[1],108.28%
same,Activity,OVCAR-3,116.56%
same,Activity,SR,100.89%
same,Activity,IGROV-1,115.36%
same,Activity,SK-MEL-28,118.66%
c1ccc(-c2nc(-c3cccs3)no2)cc1,Activity,RXF 393,122.84%
same,Activity,NCI-H322M,122.94%
same,Activity,LOX IMVI,99.72%
same,Activity,UO-31,88.86%
same,Activity,M14,111.09%
same,Activity,HOP-62,98.37%
same,Activity,SK-OV-3,106.03%
same,Activity,HCT-15,94.44%
same,Activity,EKVX,102.25%
same,Activity,HL-60(TB),103.76%
same,Activity,SF-268,105.23%
same,Activity,MDA-MB-468,83.74%
same,Activity,HOP-92,75.75%
same,Activity,[1],116.69%
same,Activity,OVCAR-3,105.28%
same,Activity,SR,97.61%
same,Activity,IGROV-1,83.5%
same,Activity,SK-MEL-28,117.87%
Nc1c(C(=O)Nc2cccc(Cl)c2)sc2nc3c(cc12)C(=O)CCC3,Activity,OVCAR-5,58.33%
same,Activity,RXF 393,25.93%
same,Activity,NCI-H322M,71.82%
same,Activity,LOX IMVI,46.08%
same,Activity,UO-31,57.11%
same,Activity,M14,26.93%
same,Activity,HOP-62,47.04%
same,Activity,SK-OV-3,35.17%
same,Activity,HCT-15,32.41%
same,Activity,EKVX,58.16%
same,Activity,HL-60(TB),33.11%
same,Activity,OVCAR-4,60.44%
same,Activity,SF-268,63.09%
same,Activity,MDA-MB-468,-10.56%
same,Activity,[1],17.69%
same,Activity,OVCAR-3,10.31%
same,Activity,SR,39.11%
same,Activity,IGROV-1,52.39%
same,Activity,SK-MEL-28,51.4%
Cc1ccccc1NC(=O)c1sc2nc3c(cc2c1N)C(=O)CCC3,Activity,OVCAR-5,80.78%
same,Activity,RXF 393,-10.38%
same,Activity,NCI-H322M,71.39%
same,Activity,LOX IMVI,47.43%
same,Activity,UO-31,77.51%
same,Activity,M14,41.54%
same,Activity,HOP-62,38.2%
same,Activity,SK-OV-3,22.08%
same,Activity,HCT-15,32.76%
same,Activity,EKVX,87.53%
same,Activity,HL-60(TB),36.05%
same,Activity,OVCAR-4,67.57%
same,Activity,SF-268,65.36%
same,Activity,MDA-MB-468,-4.56%
same,Activity,[1],22.58%
same,Activity,OVCAR-3,4.33%
same,Activity,SR,34.35%
same,Activity,IGROV-1,77.05%
same,Activity,SK-MEL-28,52.79%
Nc1c(C(=O)Nc2ccc(Cl)c(Cl)c2)sc2nc(-c3cccs3)ccc12,Activity,OVCAR-5,94.42%
same,Activity,RXF 393,92.71%
same,Activity,NCI-H322M,95.09%
same,Activity,LOX IMVI,43.3%
same,Activity,UO-31,83.99%
same,Activity,M14,87.97%
same,Activity,HOP-62,100.28%
same,Activity,SK-OV-3,105.1%
same,Activity,HCT-15,92.1%
same,Activity,EKVX,93.39%
same,Activity,HL-60(TB),99.11%
same,Activity,OVCAR-4,55.74%
same,Activity,SF-268,85.77%
same,Activity,MDA-MB-468,19.37%
same,Activity,[1],75.02%
same,Activity,OVCAR-3,100.29%
same,Activity,SR,56.67%
same,Activity,IGROV-1,122.32%
same,Activity,SK-MEL-28,97.42%
O=S(=O)(Oc1ccc(-c2cnc3ccccc3n2)cc1)c1ccc2ccccc2c1,Activity,OVCAR-5,109.35%
same,Activity,RXF 393,110%
same,Activity,NCI-H322M,137.19%
same,Activity,LOX IMVI,115.1%
same,Activity,UO-31,118.94%
same,Activity,M14,100.37%
same,Activity,HOP-62,104.1%
same,Activity,SK-OV-3,102.69%
same,Activity,HCT-15,115.04%
same,Activity,EKVX,94.26%
same,Activity,HL-60(TB),87.7%
same,Activity,SF-268,104.06%
same,Activity,MDA-MB-468,85.1%
same,Activity,HOP-92,101.74%
same,Activity,[1],104.07%
same,Activity,OVCAR-3,107.67%
same,Activity,SR,93.61%
same,Activity,SK-MEL-28,112.84%
CC1(C)CCc2cc(-c3ccn(S(=O)(=O)c4ccc(Cl)cc4)n3)ccc2O1,Activity,OVCAR-5,100.71%
same,Activity,RXF 393,89.02%
same,Activity,NCI-H322M,94.19%
same,Activity,LOX IMVI,72.15%
same,Activity,UO-31,75.63%
same,Activity,M14,80.11%
same,Activity,HOP-62,92.92%
same,Activity,SK-OV-3,91.35%
same,Activity,HCT-15,91.33%
same,Activity,EKVX,54.5%
same,Activity,HL-60(TB),71.91%
same,Activity,SF-268,90.72%
same,Activity,MDA-MB-468,48.91%
same,Activity,HOP-92,8%
same,Activity,[1],69.31%
same,Activity,OVCAR-3,84.01%
same,Activity,SR,45.51%
same,Activity,SK-MEL-28,94.67%
